The target of one assay is human GLP-1 receptor (Homo sapiens, UniProt P43220). The assay can be described thus: In vitro functional potency, CRE luciferase reporter, whole BHK cells (hGLP-1R). In kind it is cell-based. The settings on record: BHK CRE luc2P hGLP-1R cells. More on the design: expressed in transfected cells; host or cells: BHK (parent line BHKTS13), clone BHK CRE luc2P hGLP-1R. Summed up: (§1)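 Potencies are replicate means (n≥2) from non-linear log(agonist) vs response fits of CRE-driven luminescence. Cells were overnight-plated BHK CRE luc2P lines transfected with human GIPR or GLP-1R, 5000/well.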
Sequence of human GLP-1 receptor (P43220 24-463): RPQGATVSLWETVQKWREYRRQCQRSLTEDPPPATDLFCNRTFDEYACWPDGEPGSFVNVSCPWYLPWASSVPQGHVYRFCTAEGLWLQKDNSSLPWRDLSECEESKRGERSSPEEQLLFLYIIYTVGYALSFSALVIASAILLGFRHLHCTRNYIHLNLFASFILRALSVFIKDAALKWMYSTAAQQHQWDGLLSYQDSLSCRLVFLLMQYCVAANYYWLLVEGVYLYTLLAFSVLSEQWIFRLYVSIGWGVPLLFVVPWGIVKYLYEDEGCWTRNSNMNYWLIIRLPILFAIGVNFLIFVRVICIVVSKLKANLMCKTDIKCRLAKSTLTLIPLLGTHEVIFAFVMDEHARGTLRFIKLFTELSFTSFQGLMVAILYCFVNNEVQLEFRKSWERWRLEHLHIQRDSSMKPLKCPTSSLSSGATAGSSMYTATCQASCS
On the technique in general: Reporter assays use an easily measured gene product as a stand-in for the process of interest.

For a further assay, the target named is T1, human GIP receptor (Homo sapiens, UniProt P48546).
T1 construct: expressed in transfected cells; host or cells: BHK (parent line BHKTS13), clone BHK CRE luc2P hGIPR
T1 sequence (P48546 22-466): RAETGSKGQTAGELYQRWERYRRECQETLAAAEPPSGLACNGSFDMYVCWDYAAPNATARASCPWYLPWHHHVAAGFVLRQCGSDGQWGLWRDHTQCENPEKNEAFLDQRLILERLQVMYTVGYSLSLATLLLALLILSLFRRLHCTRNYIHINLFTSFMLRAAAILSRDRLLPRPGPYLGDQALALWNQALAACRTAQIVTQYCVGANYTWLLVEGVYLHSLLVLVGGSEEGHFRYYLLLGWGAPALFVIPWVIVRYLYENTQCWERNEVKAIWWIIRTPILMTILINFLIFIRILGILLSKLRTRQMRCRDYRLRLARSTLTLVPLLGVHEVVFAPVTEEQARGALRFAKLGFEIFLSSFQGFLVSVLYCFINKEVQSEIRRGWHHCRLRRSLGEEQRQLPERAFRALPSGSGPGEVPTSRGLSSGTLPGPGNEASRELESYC
The assay can be described thus: In vitro functional potency, CRE luciferase reporter, whole BHK cells (hGIPR). The conditions noted are these: BHK CRE luc2P hGIPR cells. Format: cell-based. Summed up:
as §1

[1] abbreviates: 0% HSA, read-out: hGLP-1R, CRE Luc 0% HSA EC50.
The mark [2] stands for this setting: hGLP-1R, CRE Luc 1% HSA EC50, 1% HSA.
Setting [3] is: 0% HSA, read-out: hGIPR, CRE Luc 0% HSA EC50.
The mark [4] stands for this setting: hGIPR, CRE Luc 1% HSA EC50, 1% HSA.

This passage reports EC50 results from patent publication US20220177538A1, “CO-AGONISTS AT GLP-1 AND GIP RECEPTORS SUITABLE FOR ORAL DELIVERY” (Novo Nordisk A/S, priority 2020, published 2022).

Read-outs that look alike come from different tables or passages of the source. Starred links: 1 amine or outer side, 2 acyl side, 3 side chain; linkers in the order of their positions; H or OH if unused. Non-standard residues stand in square brackets, D forms with d. Residues, ends and D or L forms follow the SMILES beside them. Groups on a side chain read outwards from the residue. *: point of attachment. C18 diacid = O=C(O)CCCCCCCCCCCCCCCCC(=O)*; γGlu = O=C(O)[C@H](CCC(=O)[*:2])N[*:1]; εLys = N[C@@H](CCCCN[*:1])C(=O)[*:2]; Aib = CC(C)(N)C(=O)O

One may read the EC50 as the concentration at which the effect is half-maximal. `CC[C@H](C)[C@H](NC(=O)[C@H](Cc1ccccc1)NC(=O)[C@H](CCC(=O)O)NC(=O)[C@H](CCCNC(=N)N)NC(=O)[C@H](C)NC(=O)[C@H](C)NC(=O)[C@H](CCC(N)=O)NC(=O)[C@H](CCCCNC(=O)[C@@H](N)CCCCNC(=O)[C@@H](N)CCCCNC(=O)CC[C@H](NC(=O)CCCCCCCCCCCCCCCCC(=O)O)C(=O)O)NC(=O)[C@H](CCC(=O)O)NC(=O)[C@H](CC(C)C)NC(=O)[C@H](CC(C)C)NC(=O)[C@@H](NC(=O)[C@H](CO)NC(=O)[C@H](Cc1ccc(O)cc1)NC(=O)[C@H](CC(=O)O)NC(=O)[C@H](CO)NC(=O)[C@@H](NC(=O)[C@@H](NC(=O)[C@@H](NC(=O)CNC(=O)[C@H](CCC(=O)O)NC(=O)C(C)(C)NC(=O)[C@@H](N)Cc1ccc(O)cc1)[C@@H](C)O)C(C)C)[C@@H](C)O)[C@@H](C)CC)C(=O)N[C@@H](CC(N)=O)C(=O)N[C@@H](Cc1c[nH]c2ccccc12)C(=O)N[C@@H](CC(C)C)C(=O)N[C@@H](CC(C)C)C(=O)N[C@@H](C)C(=O)NCC(=O)NCC(=O)N1CCC[C@H]1C(=O)N[C@@H](CO)C(=O)N[C@@H](CO)C(=O)NCC(=O)N[C@@H](C)C(=O)N1CCC[C@H]1C(=O)N1CCC[C@H]1C(=O)N1CCC[C@H]1C(=O)N[C@@H](CO)C(=O)O` [Compound 33] (H-Y[Aib]EGTVTSDYSILLEK([εLys-εLys-γGlu-C18 diacid])QAAREFINWLLAGGPSSGAPPPS-OH): the EC50 stood at 0.0148 nM at human GLP-1 receptor (setting [1]), 0.361 nM at human GLP-1 receptor (setting [2]), 0.0029 nM on human GIP receptor (setting [3]) and 0.103 nM at human GIP receptor (setting [4]).
As to `CC[C@H](C)[C@H](NC(=O)[C@H](Cc1ccccc1)NC(=O)[C@H](CCC(=O)O)NC(=O)[C@H](CCCNC(=N)N)NC(=O)[C@H](C)NC(=O)[C@H](C)NC(=O)[C@H](CCC(N)=O)NC(=O)[C@H](CCCCNC(=O)[C@@H](N)CCCCNC(=O)[C@@H](N)CCCCNC(=O)CC[C@H](NC(=O)CCCCCCCCCCCCCCCCC(=O)O)C(=O)O)NC(=O)[C@H](CCC(=O)O)NC(=O)[C@H](CC(C)C)NC(=O)[C@@H](NC(=O)[C@@H](NC(=O)[C@H](CO)NC(=O)[C@H](Cc1ccc(O)cc1)NC(=O)[C@H](CC(=O)O)NC(=O)[C@H](CO)NC(=O)[C@@H](NC(=O)[C@H](Cc1ccccc1)NC(=O)[C@@H](NC(=O)CNC(=O)[C@H](CCC(=O)O)NC(=O)C(C)(C)NC(=O)[C@@H](N)Cc1ccc(O)cc1)[C@@H](C)O)[C@@H](C)O)[C@@H](C)CC)[C@@H](C)CC)C(=O)N[C@@H](CC(N)=O)C(=O)N[C@@H](Cc1c[nH]c2ccccc12)C(=O)N[C@@H](CC(C)C)C(=O)N[C@@H](CC(C)C)C(=O)N[C@@H](C)C(=O)NCC(=O)NCC(=O)N1CCC[C@H]1C(=O)N[C@@H](CO)C(=O)N[C@@H](CO)C(=O)NCC(=O)N[C@@H](C)C(=O)N1CCC[C@H]1C(=O)N1CCC[C@H]1C(=O)N1CCC[C@H]1C(=O)N[C@@H](CO)C(=O)O` [Compound 34] (H-Y[Aib]EGTFTSDYSIILEK([εLys-εLys-γGlu-C18 diacid])QAAREFINWLLAGGPSSGAPPPS-OH), the concentration giving a half-maximal response (EC50) was 0.006 nM at human GLP-1 receptor (setting [1]), 0.186 nM on human GLP-1 receptor (setting [2]), 0.0083 nM at human GIP receptor (setting [3]) and 0.213 nM at human GIP receptor (setting [4]).
